Reference: patent publication US9908895B2, “Tricyclic fused thiophene derivatives as JAK inhibitors” (Incyte Corporation, priority 2012, dated 2018)
Counter-ions that a name gives are not always drawn. Like-named read-outs stand apart in the source and are kept apart here.

What was measured:
Format in all cases: biochemical
human JAK1 [1] = target: human JAK1 (Homo sapiens, UniProt P23458); assay: In vitro JAK kinase assay (HTRF), JAK1; conditions: 1 mM ATP
Procedure, shortened: (§1)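 Baculovirus-expressed catalytic domains (JAK1 a.a. 837-1142, JAK2 a.a. 828-1132) phosphorylate 500 nM biotinylated peptide at 1 mM ATP, Tris pH 7.8, 1 h at room temperature. EDTA stop and HTRF detection with Eu-Py20/SA-APC; IC50 values derived.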

human JAK2 = human JAK2 (Homo sapiens (Human), UniProt O60674); assay: In vitro JAK kinase assay (HTRF), JAK2; conditions: 1 mM ATP
human JAK2, sequence (O60674 828-1132): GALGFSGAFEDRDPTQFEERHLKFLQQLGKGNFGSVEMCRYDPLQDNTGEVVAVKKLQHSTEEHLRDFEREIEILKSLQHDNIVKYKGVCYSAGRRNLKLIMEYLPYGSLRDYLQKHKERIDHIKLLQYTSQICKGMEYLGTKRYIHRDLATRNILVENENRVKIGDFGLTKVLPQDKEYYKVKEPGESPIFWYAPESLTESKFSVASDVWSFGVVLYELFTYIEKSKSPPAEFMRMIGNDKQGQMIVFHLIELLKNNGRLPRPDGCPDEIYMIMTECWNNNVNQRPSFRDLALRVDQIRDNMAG
Protocol: Compounds herein were tested for inhibitory activity of JAK targets according to the following in vitro assay described in Park et al., Analytical Biochemistry 1999, 269, 94-104. The catalytic domains of human JAK1 (a.a. 837-1142), JAK2 (a.a. 828-1132) and JAK3 (a.a. 781-1124) were expressed using baculovirus in insect cells and purified. The catalytic activity of JAK1, JAK2 or JAK3 was assayed by measuring the phosphorylation of a biotinylated peptide. The phosphorylated peptide was detected by homogenous time resolved fluorescence (HTRF). IC50s of compounds were measured for each kinase in the 40 μL reactions that contain the enzyme, ATP and 500 nM peptide in 50 mM Tris (pH 7.8) buffer with 100 mM NaCl, 5 mM DTT, and 0.1 mg/mL (0.01%) BSA. For the 1 mM IC50 measurements, ATP concentration in the reactions was 1 mM. Reactions were carried out at room temperature for 1 hour and then stopped with 20 μL 45 mM EDTA, 300 nM SA-APC, 6 nM Eu-Py20 in assay buffer (Perkin Elmer, Boston, Mass.). Binding to the Europium labeled antibody took place for 40 minutes and HTRF signal was measured on a PHERA star plate reader (BMG, Cary, N.C.). The Example compounds were each tested in the Example A assay (see Table 1 for data for the compounds of the examples as tested by the assay of Example A at 1 mM ATP).

human JAK1 [2] = assay: In vitro JAK kinase assay (HTRF), JAK1; conditions: ratio of JAK2 IC50 to JAK1 IC50 at 1 mM ATP
Procedure, shortened: as §1

| IC50 (human JAK2) [nM] | IC50 (human JAK1 [1]; read-out: JAK1 IC50) [nM] | JAK2/JAK1 (human JAK1 [2]) | SMILES | IC50 (human JAK1 [1]; JAK1 IC50 (nM)) [nM] |
| --- | --- | --- | --- | --- |
| < 2000 | < 1000 | – | Cc1nc2cnc3ccsc3c2n1[C@H]1CC[C@H](CC#N)[C@H](O)C1 (racemic) [Example 34, Mixture of [(1R,2R,4S)-2-hydroxy-4-(2-methyl-1H-imidazo[4,5-d]thieno[3,2-b]pyridin-1-yl)cyclohexyl]acetonitrile trifluoroacetate and [(1S,2S,4R)-2-hydroxy-4-(2-methyl-1H-imidazo[4,5-d]thieno[3,2-b]pyridin-1-yl)cyclohexyl]acetonitrile trifluoroacetate] | – |
| > 2000 | – | >10 | C[C@@H](O)c1nc2cnc3ccsc3c2n1C1CCC(O)(CC#N)CC1 (single isomer, unassigned) [24 (second peak)] | – |

| SMILES | IC50 (human JAK2) [nM] | IC50 (human JAK1 [1]; read-out: JAK1 IC50) [nM] | JAK2/JAK1 (human JAK1 [2]) | IC50 (human JAK1 [1]; JAK1 IC50 (nM)) [nM] |
| --- | --- | --- | --- | --- |
| Cc1nc2cnc3ccsc3c2n1[C@@H]1CC[C@@H](CC#N)[C@H](O)C1.Cc1nc2cnc3ccsc3c2n1[C@H]1CC[C@H](CC#N)[C@@H](O)C1 (mixture of isomers) [41 (first peak), [(1R,2S,4S)-4-(2-Methyl-1H-imidazo[4,5-d]thieno[3,2-b]pyridin-1-yl)-2-hydroxycyclohexyl]acetonitrile and [(1S,2R,4R)-4-(2-methyl-1H-imidazo[4,5-d]thieno[3,2-b]pyridin-1-yl)-2-hydroxycyclohexyl]acetonitrile] | < 1000 | – | – | < 100 |
